From US10563263B2, “Genetic polymorphisms associated with statin response and cardiovascular diseases, methods of detection and uses thereof” (CELERA CORPORATION, priority 2010, dated 2020)

Tests used:
[1] = test system: stroke or transient ischemic attack (TIA); assay: CARE: stroke (including TIA) statin response by SNP genotype, hazard ratio pravastatin vs placebo (Tables 20-21); assay type: in vivo, human; settings: for EVENTS_RESP (total number of stroke or TIA events): CARE pravastatin arm; for HR_RESP (hazard ratio pravastatin vs placebo, stroke) / HR_RESP (hazard ratio, pravastatin-treated vs placebo-treated): CARE; for HR_RESP (hazard ratio pravastatin vs placebo, stroke): ref = placebo; for HR_RESP (hazard ratio, pravastatin-treated vs placebo-treated): stroke or TIA, pravastatin 40 mg/day
Excerpt: Tables 20-21 provides SNPs associated with stroke risk and/or stroke statin response (reduction in stroke risk by statin treatment) in the CARE sample set. Consistent with the CARE trial, the stroke endpoint in the analysis for which the results are provided in Tables 20-21 included stroke as well as transient ischemic attack (TIA).
In Tables 20-22, certain columns are labeled “RESP”, “PLACEBO, OR “ALL”. “RESP” is for statin response as measured by comparing risk (risk for stroke, including TIA, in Tables 20-21, and risk for CHD, specifically recurrent MI, in Table 22) in the pravastatin-treated group with risk in the placebo-treated group, “PLACEBO” is the placebo-treated group, and “ALL” is the combination of the placebo-treated group and the pravastatin-treated group. “RESP” is the analysis to assess statin response in the indicated genotype group.
“EVENTS” indicates the total number of events (stroke or TIA for Tables 20-21, and recurrent MI for Table 22) in individuals with the indicated genotype.
“HR” indicates the hazard ratio.
CARE was a secondary prevention trial and WOSCOPS was a primary prevention trial.
Table 20 provides SNPs associated with stroke risk and/or stroke statin response in the CARE sample set. For example, SNPs rs10757278 and rs1333049 at chromosomal location 9p21 were associated with a reduction of stroke events by statin treatment in CARE, particularly for heterozygotes (see Table 20). Furthermore, SNPs rs12425791 and rs11833579 at chromosomal location 12p13 near the NINJ2 gene were associated with stroke risk in the placebo arm of CARE (see Table 20). […] Consistent with the CARE trial, the stroke endpoint in the analysis for which the results are provided in Tables 20-21 included stroke as well as transient ischemic attack (TIA).
Fine-mapping at the chromosome 12p13 locus was carried out by selecting 77 tagging SNPs from a 400 kb region of the chromosome 12p13 locus which covered the NINJ2 gene and other genes, genotyping these 77 SNPs, and further imputing the genotypes of approximately 250 additional SNPs in this region, for individuals in the CARE study. Analyzing these fine-mapping SNPs for association with stroke risk in the placebo arm of CARE and for stroke statin response in CARE identified SNP rs873134 in the B4GALNT3 gene in the chromosome 12p13 region near NINJ2 (see Table 21).

myocyte cultures = settings: animal models and myocyte cultures; compared to lipophilic statins; cited from earlier work

CC[C@H](C)C(=O)O[C@H]1C[C@H](O)C=C2C=C[C@H](C)[C@H](CC[C@@H](O)C[C@@H](O)CC(=O)O)[C@H]21 [Pravastatin, pravastatin]
EVENTS_RESP (total number of stroke or TIA events) ([1]; rs873134 genotype CC, MODE GEN, of 354 individuals): 27
EVENTS_RESP (total number of stroke or TIA events) ([1]; rs873134 genotype CT + CC, MODE DOM, of 1034 individuals): 51
EVENTS_RESP (total number of stroke or TIA events) ([1]; rs873134 genotype CT + TT, MODE REC, of 1046 individuals): 40
EVENTS_RESP (total number of stroke or TIA events) ([1]; rs873134 genotype CT, MODE GEN, of 680 individuals): 24
EVENTS_RESP (total number of stroke or TIA events) ([1]; rs873134 genotype TT, MODE GEN, of 366 individuals): 16
HR_RESP (hazard ratio pravastatin vs placebo, stroke) ([1]; rs1333049 (hCV1754666, 9p21), MODE DOM, genotype GC + GG): 0.63
HR_RESP (hazard ratio pravastatin vs placebo, stroke) ([1]; rs1333049 (hCV1754666, 9p21), MODE GEN, genotype CC): 1.11
HR_RESP (hazard ratio pravastatin vs placebo, stroke) ([1]; rs1333049 (hCV1754666, 9p21), MODE GEN, genotype GC): 0.54
HR_RESP (hazard ratio pravastatin vs placebo, stroke) ([1]; rs1333049 (hCV1754666, 9p21), MODE GEN, genotype GG): 0.96
HR_RESP (hazard ratio pravastatin vs placebo, stroke) ([1]; rs1333049 (hCV1754666, 9p21), MODE REC, genotype GC + CC): 0.7
HR_RESP (hazard ratio pravastatin vs placebo, stroke) ([1]; rs10757278 (hCV11841860, 9p21), MODE DOM, genotype GA + GG): 0.7
HR_RESP (hazard ratio pravastatin vs placebo, stroke) ([1]; rs10757278 (hCV11841860, 9p21), MODE GEN, genotype AA): 0.9
HR_RESP (hazard ratio pravastatin vs placebo, stroke) ([1]; rs10757278 (hCV11841860, 9p21), MODE GEN, genotype GA): 0.54
HR_RESP (hazard ratio pravastatin vs placebo, stroke) ([1]; rs10757278 (hCV11841860, 9p21), MODE GEN, genotype GG): 1.08
HR_RESP (hazard ratio pravastatin vs placebo, stroke) ([1]; rs10757278 (hCV11841860, 9p21), MODE REC, genotype GA + AA): 0.62
HR_RESP (hazard ratio pravastatin vs placebo, stroke) ([1]; rs11833579 (hCV1665834, 12p13), MODE DOM, genotype AG + AA): 0.64
HR_RESP (hazard ratio pravastatin vs placebo, stroke) ([1]; rs11833579 (hCV1665834, 12p13), MODE GEN, genotype AA): 0.26
HR_RESP (hazard ratio pravastatin vs placebo, stroke) ([1]; rs11833579 (hCV1665834, 12p13), MODE GEN, genotype AG): 0.75
HR_RESP (hazard ratio pravastatin vs placebo, stroke) ([1]; rs11833579 (hCV1665834, 12p13), MODE GEN, genotype GG): 0.86
HR_RESP (hazard ratio pravastatin vs placebo, stroke) ([1]; rs11833579 (hCV1665834, 12p13), MODE REC, genotype AG + GG): 0.81
HR_RESP (hazard ratio pravastatin vs placebo, stroke) ([1]; rs12425791 (hCV12094896, 12p13), MODE DOM, genotype AG + AA): 0.52
HR_RESP (hazard ratio pravastatin vs placebo, stroke) ([1]; rs12425791 (hCV12094896, 12p13), MODE GEN, genotype AA): 0.28
HR_RESP (hazard ratio pravastatin vs placebo, stroke) ([1]; rs12425791 (hCV12094896, 12p13), MODE GEN, genotype AG): 0.56
HR_RESP (hazard ratio pravastatin vs placebo, stroke) ([1]; rs12425791 (hCV12094896, 12p13), MODE GEN, genotype GG): 0.95
HR_RESP (hazard ratio pravastatin vs placebo, stroke) ([1]; rs12425791 (hCV12094896, 12p13), MODE REC, genotype AG + GG): 0.78
HR_RESP (hazard ratio, pravastatin-treated vs placebo-treated) ([1]; rs873134 (hCV2652047) genotype CC, MODE GEN): 2.01
HR_RESP (hazard ratio, pravastatin-treated vs placebo-treated) ([1]; rs873134 (hCV2652047) genotype CT + CC, MODE DOM): 0.83
HR_RESP (hazard ratio, pravastatin-treated vs placebo-treated) ([1]; rs873134 (hCV2652047) genotype CT + TT, MODE REC): 0.52
HR_RESP (hazard ratio, pravastatin-treated vs placebo-treated) ([1]; rs873134 (hCV2652047) genotype CT, MODE GEN): 0.5
HR_RESP (hazard ratio, pravastatin-treated vs placebo-treated) ([1]; rs873134 (hCV2652047) genotype TT, MODE GEN): 0.54
myopathic potential (myocyte cultures): low myopathic potential
